Data reported in US5093127A, “Preparation of FR115224 substrate for parenteral administration” (Fujisawa Pharmaceutical Co., Ltd., priority 1989, dated 1992).
Numbered stars: 1 amine (or outer) side, 2 acyl side, 3 side chain; on linkers, the order of the positions; unused ones are H or OH. Bridge positions count the residues as written; N and C are the ends. Square brackets hold non-standard residues; d marks the D form. Peptide text beside a SMILES is read from it. * marks the point of attachment. X2 = CN(/C(=C/c1ccc(O)cc1)C(=O)[*:2])[*:1]; aThr = C[C@H](O)[C@H](N)C(=O)O; X1 = CCCCCc1ccccc1CCC(=O)*

Tests used:
[1] = Solubility test of FR115224 substance in water with cyclodextrins; type: physicochemical; details: for Solubility of FR115224 substance: distilled water, room temperature
Protocol: FR115224 substance (125 mg) was charged in 13 sample bottles, respectively and distilled water (2.5 ml) was added thereto.
Then, α-cyclodextrin, β-cyclodextrin, hydroxypropyl β-cyclodextrin or γ-cyclodextrin was charged to each of the sample bottles in amounts of […] (cyclodextrin content: 0.16% w/v), 2.5 mg (cyclodextrin content: 1% w/v) or 12.5 mg (cyclodextrin content: 5% w/v), respectively. No cyclodextrin was charged in one sample bottle, which was made control. After stirring at room temperature for 12 hours, the concentration of FR115224 substance in each aqueous phase was measured to determine the solubility of FR115224 substance.

[2] = 20° C.; cited from earlier work

Effect of cyclodextrin on the solubility of FR115224 substance in water ([1]; conclusion from Table 1)	Solubility of FR115224 substance ([1]; no cyclodextrin (0 % w/v, control), stirred 12 hours) [% w/v]	Solubility of FR115224 substance ([1]; hydroxypropyl β-cyclodextrin 0.16 % w/v, 12 hours) [% w/v]	Solubility of FR115224 substance ([1]; hydroxypropyl β-cyclodextrin 1 % w/v, 12 hours) [% w/v]	Solubility of FR115224 substance ([1]; hydroxypropyl β-cyclodextrin 5 % w/v, 12 hours) [% w/v]	Solubility of FR115224 substance ([1]; α-cyclodextrin 0.16 % w/v, 12 hours) [% w/v]	Solubility of FR115224 substance ([1]; α-cyclodextrin 1 % w/v, 12 hours) [% w/v]	Solubility of FR115224 substance ([1]; α-cyclodextrin 5 % w/v, 12 hours) [% w/v]	Solubility of FR115224 substance ([1]; β-cyclodextrin 0.16 % w/v, 12 hours) [% w/v]	Solubility of FR115224 substance ([1]; β-cyclodextrin 1 % w/v, 12 hours) [% w/v]	Solubility of FR115224 substance ([1]; β-cyclodextrin 5 % w/v, 12 hours) [% w/v]	Solubility of FR115224 substance ([1]; γ-cyclodextrin 0.16 % w/v, 12 hours) [% w/v]	Solubility of FR115224 substance ([1]; γ-cyclodextrin 1 % w/v, 12 hours) [% w/v]	Solubility of FR115224 substance ([1]; γ-cyclodextrin 5 % w/v, 12 hours) [% w/v]	Structure (SMILES)	Increase of water solubility by inclusion compound with β-cyclodextrin [2]
markedly increase	0.003	0.009	0.06	0.49	0.008	0.03	0.14	0.013	0.11	0.34	0.006	0.03	0.16	CCCCCc1ccccc1CCC(=O)N[C@@H]1C(=O)N(C)/C(=C/c2ccc(O)cc2)C(=O)N[C@@H](CC(C)C)C(=O)N[C@H](Cc2ccccc2)C(=O)N[C@@H]([C@H](C)O)C(=O)N[C@@H](CC(N)=O)C(=O)N[C@@H](CO)C(=O)O[C@@H]1C [FR115224 substance] (X1-T[X2]L[dF][aThr]NS; ester 1-C)	
														C(=C\c1ccccc1)/CN1CCN(C(c2ccccc2)c2ccccc2)CC1 [Cinnarizine]	about 5 times
